Measured values published in BindingDB's records for doi:10.1016/j.bioorg.2014.02.002 (Swami Ramanand Teerth Marathwada University, 2014).
Where “and” joins values, the source holds several entries; their conditions need not be identical. Equal values may be shown once.

Molecular target: Aldose reductase (Capra hircus)
Test: The reaction mixture contained 1 mL of 1 M potassium phosphate buffer (pH 6.2), 0.4 mM lithium sulfate and 5 µM 2-mercaptoethanol, 10 µM DL-glyceraldehyde, […], and crude enzyme. The reaction mixture was incubated at 37 °C for 10 min. The reaction was initiated by the addition of NADPH and the decrease in absorbance was measured a

| IC50 | Compound |
| --- | --- |
| 11.9 µM and 12.8 µM | NC(=S)N1C=C(N)C(=Cc2ccc(F)cc2)C1=O [(3Z)‐4‐amino‐3‐[(4‐methoxyphenyl)methylidene]‐2‐ oxopyrrole‐1‐carbothioamide (2c)] |
| 6.3 µM | NC(=S)N1N=C(N)C(=Cc2cn(-c3ccccc3)nc2-c2ccc(Cl)cc2)C1=O [(4E)‐3‐amino‐4‐{[3‐(4‐chlorophenyl)‐1‐ phenylpyrazol‐4‐yl]methylidene}‐5‐oxopyrazole‐1‐ carbothioamide (2e)] |
| 9.2 µM | NC1=NNC(=O)C1=Cc1cn(-c2ccccc2)nc1-c1ccc(Cl)cc1 [(4E)‐5‐amino‐4‐{[3‐(4‐chlorophenyl)‐1‐ phenylpyrazol‐4‐yl]methylidene}‐2H‐pyrazol‐3‐one (1e)] |
| 8.1 µM | COc1ccc(-c2cc(C=C3C(=O)N(C(N)=S)N=C3N)n(-c3ccccc3)n2)cc1 [(4Z)‐3‐amino‐4‐{[5‐(4‐methoxyphenyl)‐2‐ phenylpyrazol‐3‐yl]methylidene}‐5‐oxopyrazole‐1‐ carbothioamide (2d)] |
